In US12458021B2, “Microbiocidal derivatives” (SYNGENTA CROP PROTECTION AG, priority 2019, dated 2025) one finds inhibition data, which are given here for 31 compounds.

Assay type in all cases: cell-based
Test [1] deals with Monographella nivalis (Microdochium nivale). The test is described as follows: Monographella nivalis (Microdochium nivale) / liquid culture (foot rot cereals). The following applies: PDB potato dextrose broth, 24° C., 4-5 days after application, read-out: control of Monographella nivalis (inhibition of growth, photometric). The procedure:
Example B7: Monographella nivalis (Microdochium nivale)/Liquid Culture (Foot Rot Cereals) Conidia of the fungus from cryogenic storage are directly mixed into nutrient broth (PDB potato dextrose broth). After placing a (DMSO) solution of test compound into a microtiter plate (96-well format), the nutrient broth containing the fungal spores is added. The test plates are incubated at 24° C. and the inhibition of growth is determined photometrically 4-5 days after application. […] […]-190.

The subject of test [2] is Glomerella lagenarium (Colletotrichum lagenarium). The test is described as follows: Glomerella lagenarium (Colletotrichum lagenarium) / liquid culture (anthracnose). Conditions: Colletotrichum orbiculare, PDB potato dextrose broth, 24° C., 3-4 days after application, read-out: control of Glomerella lagenarium (inhibition of growth, photometric). The protocol:
Example B3: Glomerella lagenarium (Colletotrichum lagenarium)/Liquid Culture (Anthracnose) Conidia of the fungus from cryogenic storage are directly mixed into nutrient broth (PDB potato dextrose broth). After placing a (DMSO) solution of test compound into a microtiter plate (96-well format), the nutrient broth containing the fungal spores is added. The test plates are incubated at 24° C. and the inhibition of growth is measured photometrically 3-4 days after application. […] […]-191.

Test [3] relates to Mycosphaerella graminicola (Septoria tritici). The test is described as follows: Mycosphaerella graminicola (Septoria tritici) / liquid culture (Septoria blotch). Conditions: Zymoseptoria tritici, PDB potato dextrose broth, 24° C., 4-5 days after application, read-out: control of Mycosphaerella graminicola (inhibition of growth, photometric). The protocol: Example B15: Mycosphaerella graminicola (Septoria tritici)/Liquid Culture (Septoria Blotch) Conidia of the fungus from cryogenic storage are directly mixed into nutrient broth (PDB potato dextrose broth). After placing a (DMSO) solution of test compound into a microtiter plate (96-well format), the nutrient broth containing the fungal spores is added. The test plates are incubated at 24° C. and the inhibition of growth is determined photometrically 4-5 days after application. […] […]-191.

Each structure is given as a SMILES string.

As a reminder, the inhibition is the share of the control response that was lost under treatment.

As for `COc1ccc(Nc2nccs2)nc1C(=O)NC1CCC1(C)C` (centres unmarked) [Compound P-5, N-(2,2-dimethylcyclobutyl)-3-methoxy-6-(thiazol-2-ylamino)pyridine-2-carboxamide], in test [1], the inhibition at 20 ppm is at least 80%.
As for `CC1(C)CCC1NC(=O)c1nc(Nc2cncc(F)c2)ccc1O` (centres unmarked) [Compound P-12, N-(2,2-dimethylcyclobutyl)-6-[(5-fluoro-3-pyridyl)amino]-3-hydroxy-pyridine-2-carboxamide], the inhibition at 20 ppm in test [1] was at least 80%.
On to `CC1(C)CCC1NC(=O)c1nc(Nc2ccc(F)nc2)ccc1O` (centres unmarked) [Compound P-13, N-(2,2-dimethylcyclobutyl)-6-[(6-fluoro-3-pyridyl)amino]-3-hydroxy-pyridine-2-carboxamide], for which the inhibition at 20 ppm in test [2] and in test [1] was at least 80% each time.
As to `CC1(C)CCC1NC(=O)c1nc(Nc2ccnc(Cl)c2)ccc1O` (centres unmarked) [Compound P-14, 6-[(2-chloro-4-pyridyl)amino]-N-(2,2-dimethylcyclobutyl)-3-hydroxy-pyridine-2-carboxamide], the inhibition at 20 ppm in test [2] and in test [1] was at least 80% each time.
`CC1(C)CCC1NC(=O)c1nc(Nc2cncnc2)ccc1O` (centres unmarked) [Compound P-15, N-(2,2-dimethylcyclobutyl)-3-hydroxy-6-(pyrimidin-5-ylamino)pyridine-2-carboxamide]: the inhibition at 20 ppm in test [1] is at least 80%.
`CC1(C)CCC1NC(=O)c1nc(Nc2ccc3c(c2)OCO3)ccc1O` (centres unmarked) [Compound P-17, 6-(1,3-benzodioxo1-5-ylamino)-N-(2,2-dimethylcyclobutyl)-3-hydroxy-pyridine-2-carboxamide]: in test [1], the inhibition at 20 ppm was at least 80%.
Regarding `COCC(=O)Oc1ccc(N(C(=O)COC)c2cc(F)cc(F)c2)nc1C(=O)NC1CCC1(C)C` (centres unmarked) [Compound P-24, [6-(3,5-difluoro-N-(2-methoxyacetyl)anilino)-2-[(2,2-dimethylcyclobutyl)carbamoyl]-3-pyridyl] 2-methoxyacetate], the inhibition at 20 ppm in test [2] was at least 80%.
Regarding `COc1ccc(Nc2cc(F)cc(F)c2)nc1C(=O)NCC#CC(C)(C)C` [Compound P-28, 6-(3,5-difluoroanilino)-N-(4,4-dimethylpent-2-ynyl)-3-methoxy-pyridine-2-carboxamide], the inhibition at 20 ppm in test [3] was at least 80%.
On the same count and under the same terms, as for `COc1ccc(Nc2cnsc2)nc1C(=O)NCC#CC(C)(C)C` [Compound P-34, N-(4,4-dimethylpent-2-ynyl)-6-(isothiazol-4-ylamino)-3-methoxy-pyridine-2-carboxamide], the figure is at least 80%.
For the compound `COc1ccc(NC2CCC2)nc1C(=O)NCC(C)(C)C` [Compound P-41, 6-(cyclobutylamino)-N-(2,2-dimethylpropyl)-3-methoxy-pyridine-2-carboxamide], the inhibition at 20 ppm in test [3] was at least 80%.
Take `COc1ccc(Nc2cc(F)cc(F)c2)nc1C(=O)NCc1cccc2c1OC(F)(F)O2` [Compound P-58, 6-(3,5-difluoroanilino)-N-[(2,2-difluoro-1,3-benzodioxol-4-yl)methyl]-3-methoxy-pyridine-2-carboxamide]: the inhibition at 20 ppm in test [3] and in test [2] was at least 80% in each case.
As to `COc1ccc(Nc2cc(F)cc(F)c2)nc1C(=O)NCC1(c2ccc(C(F)(F)F)cn2)CC1` [Compound P-72, 6-(3,5-difluoroanilino)-3-methoxy-N-[[1-[5-(trifluoromethyl)-2-pyridyl]cyclopropyl]methyl]pyridine-2-carboxamide], in test [2], the inhibition at 20 ppm was at least 80%.
`COc1ccc(Nc2cc(F)cc(F)c2)nc1C(=O)NC1CCN(S(=O)(=O)C(C)C)CC1` [Compound P-77, 6-(3,5-difluoroanilino)-N-(1-isopropylsulfonyl-4-piperidyl)-3-methoxy-pyridine-2-carboxamide]: the inhibition at 20 ppm in test [2] is at least 80%.
As to `COc1ccc(Nc2cnsc2)nc1C(=O)NCc1ccc(Oc2ccccc2)cc1` [Compound P-81, 6-(isothiazol-4-ylamino)-3-methoxy-N-[(4-phenoxyphenyl)methyl]pyridine-2-carboxamide], the inhibition at 20 ppm in test [2] and in test [1] was at least 80% in each case.
As for `COc1ccc(Nc2cnsc2)nc1C(=O)NCc1cccc2c1OC(F)(F)O2` [Compound P-82, N-[(2,2-difluoro-1,3-benzodioxol-4-yl)methyl]-6-(isothiazol-4-ylamino)-3-methoxy-pyridine-2-carboxamide], the inhibition at 20 ppm in test [2] and in test [1] was at least 80% throughout.
For `COc1ccc(Nc2cnsc2)nc1C(=O)NCC1(C)CCOC2(CCC2)C1` (centres unmarked) [Compound P-84, 6-(isothiazol-4-ylamino)-3-methoxy-N-[(8-methyl-5-oxaspiro[3.5]nonan-8-yl)methyl]pyridine-2-carboxamide], the inhibition at 20 ppm in test [2] was at least 80%.
For `COc1ccc(Nc2cnsc2)nc1C(=O)NCCc1ccc(OC(F)(F)F)cc1` [Compound P-85, 6-(isothiazol-4-ylamino)-3-methoxy-N-[2-[4-(trifluoromethoxy)phenyl]ethyl]pyridine-2-carboxamide], the inhibition at 20 ppm in test [2] was at least 80%.
As to `CC(C)(C)CNC(=O)c1nc(Nc2cc(F)nc(F)c2)ccc1O` [Compound P-100, 6-[(2,6-difluoro-4-pyridyl)amino]-N-(2,2-dimethylpropyl)-3-hydroxy-pyridine-2-carboxamide], in test [2], the inhibition at 20 ppm is at least 80%.
On the same count and under the same terms, as for `COc1cc(Nc2cc(F)cc(F)c2)nc(C(=O)NC2CCC2(C)C)c1` (centres unmarked) [Compound P-101, 6-(3,5-difluoroanilino)-N-(2,2-dimethylcyclobutyl)-4-methoxy-pyridine-2-carboxamide], the figure is at least 80%.
Turning to `CC(C)(C)CNC(=O)c1nc(Nc2cc(F)nc(F)c2I)ccc1O` [Compound P-106, 6-[(2,6-difluoro-3-iodo-4-pyridyl)amino]-N-(2,2-dimethylpropyl)-3-hydroxy-pyridine-2-carboxamide], the inhibition at 20 ppm in test [1] is at least 80%.
On to `COc1ccc(Nc2cc(F)cc(F)c2)nc1C(=O)NCc1cc(C(F)(F)F)cc(C(F)(F)F)c1` [Compound P-115, N-[[3,5-bis(trifluoromethyl)phenyl]methyl]-6-(3,5-difluoroanilino)-3-methoxy-pyridine-2-carboxamide], for which, in test [3], the inhibition at 20 ppm is at least 80%.
Consider `COc1ccc(Nc2cc(Cl)cc(Cl)c2)nc1C(=O)NCC(C)(C)C` [Compound P-130, 6-(3,5-dichloroanilino)-N-(2,2-dimethylpropyl)-3-methoxy-pyridine-2-carboxamide], for which the inhibition at 20 ppm in test [3] and in test [2] was at least 80% in each case.
For `COc1ccc(Nc2cc(F)c(Cl)c(F)c2)nc1C(=O)NCC(C)(C)C` [Compound P-135, 6-(4-chloro-3,5-difluoro-anilino)-N-(2,2-dimethylpropyl)-3-methoxy-pyridine-2-carboxamide], in test [3], the inhibition at 20 ppm was at least 80%.
Take `COc1ccc(Nc2ccc(C)cc2)nc1C(=O)NCC(C)(C)C` [Compound P-141, N-(2,2-dimethylpropyl)-3-methoxy-6-(4-methylanilino)pyridine-2-carboxamide]: in test [2], the inhibition at 20 ppm is at least 80%.
Regarding `COc1ccc(Nc2ccc(Cl)c(Cl)c2)nc1C(=O)NC(C)(C)C` [Compound P-149, N-tert-butyl-6-(3,4-dichloroanilino)-3-methoxy-pyridine-2-carboxamide], the inhibition at 20 ppm in test [2] was at least 80%.
Turning to `COc1ccc(Nc2ccc(C(F)(F)F)c(F)c2)nc1C(=O)NC(C)(C)C` [Compound P-154, N-tert-butyl-6-[3-fluoro-4-(trifluoromethyl)anilino]-3-methoxy-pyridine-2-carboxamide], the inhibition at 20 ppm in test [2] is at least 80%.
In the case of `COc1ccc(Nc2ccc(Cl)c(C)c2)nc1C(=O)NC(C)(C)C` [Compound P-158, N-tert-butyl-6-(4-chloro-3-methyl-anilino)-3-methoxy-pyridine-2-carboxamide], the inhibition at 20 ppm in test [2] was at least 80%.
With `COc1ccc(Nc2ccc(C)cc2)nc1C(=O)NC(C)(C)C` [Compound P-161, N-tert-butyl-3-methoxy-6-(4-methylanilino)pyridine-2-carboxamide], the inhibition at 20 ppm in test [2] is at least 80%.
As for `COc1ccc(Nc2cncc(C(F)(F)F)c2)nc1C(=O)NC(C)(C)C` [Compound P-163, N-tert-butyl-3-methoxy-6-[[5-(trifluoromethyl)-3-pyridyl]amino]pyridine-2-carboxamide], the inhibition at 20 ppm in test [2] was at least 80%.
As for `COc1ccc(Nc2ccc3cnn(Cc4ccccc4)c3c2)nc1C(=O)NC(C)(C)C` [Compound P-165, 6-[(1-benzylindazol-6-yl)amino]-N-tert-butyl-3-methoxy-pyridine-2-carboxamide], the inhibition at 20 ppm in test [2] was at least 80%.
With `COC(=O)N(c1cc(F)cc(F)c1)c1ccc(OC)c(C(=O)NC2CCC2(C)C)n1` (centres unmarked) [Compound P-191, methyl N-(3,5-difluorophenyl)-N-[6-[(2,2-dimethylcyclobutyl)carbamoyl]-5-methoxy-2-pyridyl]carbamate], the inhibition at 20 ppm in test [3] and in test [2] was at least 80% in each case.
